ChEMBL document CHEMBL1154947, “Discovery of N-(5,6-diarylpyridin-2-yl)amide derivatives as potent and selective A(2B) adenosine receptor antagonists” (Bioorg Med Chem Lett, 2010)

Legend:
Adenosine receptor A1 = molecular target: T1, Adenosine receptor A1 (Homo sapiens, UniProt P30542); test: biochemical
T1 sequence (P30542 whole entry): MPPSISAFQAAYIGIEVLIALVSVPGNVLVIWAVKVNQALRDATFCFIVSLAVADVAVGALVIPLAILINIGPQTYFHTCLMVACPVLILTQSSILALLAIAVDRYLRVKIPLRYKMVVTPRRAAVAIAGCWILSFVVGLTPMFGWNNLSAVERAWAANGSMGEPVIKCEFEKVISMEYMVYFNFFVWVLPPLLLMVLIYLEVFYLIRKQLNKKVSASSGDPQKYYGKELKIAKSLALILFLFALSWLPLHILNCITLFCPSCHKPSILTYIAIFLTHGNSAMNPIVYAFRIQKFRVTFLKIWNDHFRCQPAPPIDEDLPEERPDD
Description: Displacement of [3H]DPCPX from human adenosine A1 receptor expressed in CHO cells after 90 mins by filtration binding assay

Adenosine receptor A2a [1] = molecular target: T2, Adenosine receptor A2a (Homo sapiens, UniProt P29274); test: Displacement of [3H]ZM241385 from human adenosine A2A receptor expressed in human HeLa cells after 1 hr by scintillation proximity assay; assay type: cell-based
T2 sequence (P29274 whole entry): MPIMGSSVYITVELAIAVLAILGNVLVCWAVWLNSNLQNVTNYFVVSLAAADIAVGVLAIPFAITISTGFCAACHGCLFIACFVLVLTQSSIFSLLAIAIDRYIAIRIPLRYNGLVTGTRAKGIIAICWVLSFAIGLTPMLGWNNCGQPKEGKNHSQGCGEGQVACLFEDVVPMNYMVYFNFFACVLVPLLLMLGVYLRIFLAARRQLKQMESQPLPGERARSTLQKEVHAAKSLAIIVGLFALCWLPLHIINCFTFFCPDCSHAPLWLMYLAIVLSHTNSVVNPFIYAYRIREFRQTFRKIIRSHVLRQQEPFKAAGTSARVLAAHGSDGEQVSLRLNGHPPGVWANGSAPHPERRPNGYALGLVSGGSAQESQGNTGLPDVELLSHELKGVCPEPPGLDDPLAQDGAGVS

Adenosine receptor A2b = molecular target: T3, Adenosine receptor A2b (Homo sapiens, UniProt P29275); test: biochemical
T3 sequence (P29275 whole entry): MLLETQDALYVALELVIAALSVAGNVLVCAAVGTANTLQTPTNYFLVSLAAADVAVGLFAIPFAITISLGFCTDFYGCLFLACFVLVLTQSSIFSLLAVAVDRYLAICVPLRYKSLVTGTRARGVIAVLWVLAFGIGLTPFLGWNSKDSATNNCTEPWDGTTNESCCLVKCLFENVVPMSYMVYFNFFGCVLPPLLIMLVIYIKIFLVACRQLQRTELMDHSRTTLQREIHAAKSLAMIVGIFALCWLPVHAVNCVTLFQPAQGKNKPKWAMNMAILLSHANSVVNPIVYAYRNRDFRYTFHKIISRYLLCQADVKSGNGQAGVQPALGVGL
Description: Displacement of [3H]DPCPX from human adenosine A2B receptor expressed in HEK293 cells after 60 mins by filtration binding assay

Adenosine receptor A3 = molecular target: T4, Adenosine receptor A3 (Homo sapiens, UniProt P0DMS8); test: Displacement of [3H]NECA from human adenosine A3 receptor expressed in human HeLa cells after 3 hrs by filtration binding assay; assay type: cell-based
T4 sequence (P0DMS8 whole entry): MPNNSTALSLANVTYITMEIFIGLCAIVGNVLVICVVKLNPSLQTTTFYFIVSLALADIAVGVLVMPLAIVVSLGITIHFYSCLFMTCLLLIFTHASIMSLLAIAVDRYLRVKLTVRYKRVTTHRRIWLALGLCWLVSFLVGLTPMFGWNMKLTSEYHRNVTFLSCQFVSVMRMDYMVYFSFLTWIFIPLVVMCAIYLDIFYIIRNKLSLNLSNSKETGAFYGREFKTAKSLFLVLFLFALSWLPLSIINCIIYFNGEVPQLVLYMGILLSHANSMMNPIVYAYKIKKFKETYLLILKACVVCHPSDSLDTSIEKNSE

[2] = molecular target: T5, Adenosine receptor A3 (Homo sapiens) (UniProt P0DMS8); test: Inhibition of [3H]NECA binding to human adenosine A3 receptor expressed in human HeLa cells at 1 uM after 3 hrs by filtration binding assay; assay type: cell-based
T5 sequence (whole entry): T4 sequence (P0DMS8 whole entry)

Adenosine receptor A2a [3] = molecular target: T2, Adenosine receptor A2a; test: Inhibition of [3H]ZM241385 binding to human adenosine A2A receptor expressed in human HeLa cells at 1 uM after 1 hr by scintillation proximity assay; assay type: cell-based
[4] = molecular target: T6, Adenosine receptor A1 (Homo sapiens) (UniProt P30542); test: Inhibition of [3H]DPCPX binding to human adenosine A1 receptor expressed in CHO cells at 1 uM after 90 mins by filtration binding assay; assay type: cell-based
T6 sequence (whole entry): T1 sequence (P30542 whole entry)

[5] = Cmax in rat at 1 mg/kg, iv; assay type: ADME, organism-based; parameters: dose 1 mg/kg, route intravenous; conditions: in vivo
[6] = Metabolic stability in rat liver microsomes assessed as turnover at 5 uM after 30 mins in absence of NADPH; assay type: ADME, Microsome; conditions: read-out: Activity
[7] = AUC (0 to infinity) in rat at 1 mg/kg, iv; assay type: ADME, organism-based; parameters: time infinity, dose 1 mg/kg, route intravenous; conditions: plasma
[8] = Metabolic stability in human liver microsomes assessed as turnover at 5 uM after 30 mins in presence of NADPH; assay type: ADME, Microsome; conditions: read-out: Activity
[9] = Volume of distribution at steady state in rat at 1 mg/kg, iv; assay type: ADME, organism-based; parameters: dose 1 mg/kg, route intravenous; conditions: in vivo, read-out: Vdss
[10] = Terminal half life in rat at 1 mg/kg, iv; assay type: ADME, organism-based; parameters: dose 1 mg/kg, route intravenous; conditions: in vivo, read-out: beta t1/2 (converted)
[11] = Clearance in rat at 1 mg/kg, iv; assay type: ADME, organism-based; parameters: dose 1 mg/kg, route intravenous; conditions: in vivo
[12] = molecular target: T7, Adenosine receptor A2b (Homo sapiens) (UniProt P29275); test: Inhibition of [3H]DPCPX binding to human adenosine A2B receptor expressed in HEK293 cells at 1 uM after 60 mins by filtration binding assay; assay type: cell-based
T7 sequence (whole entry): T3 sequence (P29275 whole entry)

[13] = Metabolic stability in human liver microsomes assessed as turnover at 5 uM after 30 mins in absence of NADPH; assay type: ADME, Microsome; conditions: read-out: Activity
[14] = Oral bioavailability in rat at 10 mg/kg; assay type: ADME, organism-based; conditions: in vivo
[15] = Tmax in rat at 10 mg/kg, po; assay type: ADME, organism-based; parameters: dose 10 mg/kg, route oral; conditions: in vivo
[16] = Metabolic stability in rat liver microsomes assessed as turnover at 5 uM after 30 mins in presence of NADPH; assay type: ADME, Microsome; conditions: read-out: Activity

Row | SMILES | Ki (Adenosine receptor A1) [nM] | Ki (Adenosine receptor A2a [1]) [nM] | Ki (Adenosine receptor A2b) [nM] | Ki (Adenosine receptor A3) [nM] | inhibition [2] [%] | inhibition [4] [%] | also measured
1 | O=C(Nc1ccc(Br)c(-c2ccco2)n1)C1CC1 | 285 | 35 | 28 | 617 |  |  | 
2 | Cc1ccc(-c2nc(NC(=O)C3CC3)ccc2-c2ccncc2)o1 | 25 | 11 | 5 | 189 |  |  | 
3 | O=C(Nc1ccc(-c2ccncc2)c(-c2ccncn2)n1)C1CC1 |  |  | 208 |  | 3 | 3 | inhibition (Adenosine receptor A2a [3]): 9%
4 | O=C(Nc1ccc(-c2ccncc2)c(-c2ccc(F)cc2)n1)C1CC1 | 35 | 39 | 4 |  | 27 |  | 
5 | O=C(Nc1ccc(-c2ccncc2)c(-n2cccn2)n1)C1CC1 |  | 1440 | 72 |  | 2 | 22 | 
6 | CC(=O)Nc1ccc(-c2ccncn2)c(-c2ccco2)n1 |  |  | 47 |  | 28 | 7 | inhibition (Adenosine receptor A2a [3]): 20%
7 | O=C(Nc1ccc(-c2ccncc2)c(-c2cc[nH]n2)n1)C1CC1 |  |  | 202 |  | 1 | 3 | inhibition (Adenosine receptor A2a [3]): 4%
8 | O=C(Nc1ccc(-c2ccncc2)c(-c2ccccn2)n1)C1CC1 | 940 | 862 | 47 |  | 2 |  | Cmax [5]: 822 ng/mL; metabolised at 0.5 h, 5 µM [6]: 12%; AUC(0-inf) [7]: 485 ng·h/mL; metabolised at 0.5 h, 5 µM [8]: 0%; Vd [9]: 1 L/kg; half-life [10]: 30 min; clearance [11]: 35 mL/min/kg
9 | O=C(Nc1ccc(-c2ccncc2)c(-c2cncs2)n1)C1CC1 | 320 | 813 | 78 | 4850 |  |  | 
10 | CC(=O)Nc1ccc(-c2ccncc2)c(-c2cccc(F)c2)n1 | 58 | 286 | 30 | 471 |  |  | 
11 | O=C(Nc1ccc(C2N=NN=N2)c(-c2ccco2)n1)C1CC1 |  | 1640 |  |  | 8 | 1 | inhibition [12]: 23%
12 | CC(=O)Nc1ccc(-c2ccncc2)c(-c2ccco2)n1 | 358 | 209 | 7 | 333 |  |  | 
13 | O=C(Nc1ccc(-c2ccncc2)c(-c2ccccc2F)n1)C1CC1 | 123 | 61 | 2 | 817 |  |  | metabolised at 0.5 h, 5 µM [13]: 86%; metabolised at 0.5 h, 5 µM [6]: 100%
14 | O=C(Nc1ccc(-c2ccncc2Cl)c(-c2ccco2)n1)C1CC1 | 250 | 147 | 5 | 1870 |  |  | 
15 | O=C(Nc1ccc(-c2ccncn2)c(-c2ccco2)n1)C1CC1 | 931 | 239 | 4 | 3750 |  |  | Cmax [5]: 538 ng/mL; metabolised at 0.5 h, 5 µM [6]: 27%; AUC(0-inf) [7]: 267 ng·h/mL; bioavailability [14]: 39%; Vd [9]: 1.6 L/kg; half-life [10]: 30 min; Tmax [15]: 18 min; clearance [11]: 63.3 mL/min/kg
16 | c1cncc(Nc2ncc(-c3ccncn3)c(-c3ccco3)n2)c1 | 2820 |  |  | 1040 |  |  | 
17 | O=C(Nc1ccc(-c2ccncc2F)c(-c2ccco2)n1)C1CC1 | 374 | 150 | 1 |  | 11 |  | metabolised at 0.5 h, 5 µM [13]: 77%; metabolised at 0.5 h, 5 µM [6]: 99%
18 | CC(=O)c1nc(NC(=O)C2CC2)ccc1-c1ccncc1 |  |  | 3670 |  | 2 | 6 | inhibition (Adenosine receptor A2a [3]): 2%
19 | O=C(Nc1ccc(-c2ccncc2)c(Cl)n1)C1CC1 |  |  | 380 |  | 14 | 5 | inhibition (Adenosine receptor A2a [3]): 7%
20 | O=C(Nc1ccc(-c2ccncc2)c(-c2cnco2)n1)C1CC1 | 635 | 635 | 30 |  | 5 |  | 
21 | O=C(Nc1ccc(-c2ccncc2)c(-c2cccc(F)c2)n1)C1CC1 | 14 | 57 | 2 | 715 |  |  | 
22 | O=C(Nc1ccc(-c2ccncc2)c(-c2cccnc2)n1)C1CC1 |  | 1470 | 33 |  | 10 | 21 | 
23 | O=C(Nc1ccc(-c2ccncc2)c(-c2cocn2)n1)C1CC1 |  | 1370 | 134 |  | 12 | 1 | 
24 | O=C(Nc1ccc(-c2ccncc2)cn1)C1CC1 |  |  |  |  | 7 | 8 | inhibition [12]: 29%; inhibition (Adenosine receptor A2a [3]): 2%
25 | N#Cc1ccc(NC(=O)C2CC2)nc1-c1ccco1 | 289 | 12 | 41 | 326 |  |  | 
26 | CC(=O)Nc1ncc(-c2ccncn2)c(-c2ccco2)n1 |  |  | 380 |  | 2 | 2 | inhibition (Adenosine receptor A2a [3]): 10%
27 | O=C(Nc1ccc(-c2ccncc2)c(-c2ccco2)n1)C1CC1 | 82 | 30 | 1 | 1340 |  |  | 
28 | O=C(Nc1ccc(-c2ccncc2)c(-c2ccncc2)n1)C1CC1 | 338 | 163 | 14 |  | 6 |  | 
29 | O=C(Nc1ccc(-c2ccncc2)c(-c2ncco2)n1)C1CC1 | 702 | 1360 | 32 |  | 22 |  | Cmax [5]: 761 ng/mL; AUC(0-inf) [7]: 533 ng·h/mL; metabolised at 0.5 h, 5 µM [8]: 14%; Vd [9]: 1.6 L/kg; half-life [10]: 54 min; metabolised at 0.5 h, 5 µM [16]: 27%; clearance [11]: 31.7 mL/min/kg
30 | O=C(Nc1ccc(-c2ccncc2)c(-c2nccs2)n1)C1CC1 | 914 | 302 | 42 |  | 11 |  | 
